From patent US20100159007A1, “PHARMACEUTICAL COMPOSITIONS FOR TRANSMUCOSAL DELIVERY OF A THERAPEUTICALLY ACTIVE AGENT ON THE BASIS OF SUBMICRON PARTICLES” (PHARMAKODEX LIMITED, priority 2006, published 2010)
Values after ≈ are worked out from the molar mass of the structure shown.

Legend:
[1] = Stability of sumatriptan in receiver fluid; format: physicochemical; conditions: 48 hours
Method: [table] […] The stability of the raw drug (sumatriptan) in the receiver fluid was determined when stored at 4° C., 25° C., 37° C. and −20° C. over a period of 48 hours.

[2] = Franz cell permeation and mass balance; format: in vitro ADME, pig
Method: [table] […] A permeation study was performed in order to investigate over what period of time a quantifiable amount of drug could be detected in the receiver fluid. Individually calibrated Franz cells with an average surface area and volume of approximately 0.6 cm^2 and 2 ml respectively were employed to determine the permeation of sumatriptan from the submicron particle formulation. The oral pig mucosa was mounted between two halves of the Franz cell with the mucosal side facing the donor compartment. The receptor compartment 22, having a clamp attachment lug 24, was filled with receiver fluid 27 (10% ethanol in PBS), stirred constantly with a PTFE-coated magnetic follower driven by submersible magnetic stirrer and maintained at 37° C. in a water bath. Approximately 5 mg of each formulation 26 was placed into the donor compartment 21 and the donor compartment was covered with Parafilm® throughout the study. Following the application of the drug formulation, the receiver fluid 27 (200 μl) was removed from the receiver compartment 22 via the sampling arm 25 after, e.g. 1, 2, 4, 6, 24 and 48 hours and analysed via HPLC. Each removed sample was replaced by an equal volume of fresh pre-warmed (37° C.) receiver fluid. At the end of the experiment, a mass balance investigation was performed as follows: A. Surface drug (S), the surface of the oral mucosa containing each formulation was wiped carefully using a sequence of dry and wet cotton buds. Collectively, the cotton buds from each Franz cell were immersed into glass vials containing 5 ml of receiver fluid. The vials were placed in an oscillating shaker and left overnight. An aliquot of 1 ml of the sample was then removed and analysed via HPLC. B. The oral mucosa was placed into a glass vial containing 5 ml of receiver fluid, and placed on a shaker at room temperature overnight. An aliquot of 1 ml of the sample was then removed and analysed via HPLC. C. Franz cell receptor compartment interface (joining section with donor) was swabbed with cotton buds. Collectively, the cotton buds from each Franz cell were immersed into a glass vial containing 5 ml receiver fluid. The vials were then placed in an oscillating shaker and left overnight. An aliquot of 1 ml of the sample was then removed and analysed via HPLC. D. Franz cell donor compartment interface (joining section with receptor) and internal face of the donor compartment was swabbed with cotton buds. Collectively, the cotton buds from each Franz cell were immersed into a glass vial containing 5 ml receiver fluid. The vials were then placed in an oscillating shaker and left overnight. An aliquot of 1 ml of the sample was then removed and analysed via HPLC. This experiment was carried out with the submicron sumatriptan formulation (a remade batch corresponding to Example 1A, batch 25#37/01) (n=6), pure unprocessed sumatriptan (n=3) and blank (n=2), i.e. cells with no formulation applied. […] Test Item 1 is the 40% sumatriptan submicron particle formulation (approximately 5 mg applied to the surface of the mucosa, n=6±SD), Test Item 2 is the unprocessed sumatriptan raw material (approximately 5 mg applied to the surface of the mucosa, n=3±SD) and the Blank is no Test Item applied (n=2).

[3] = Solubility of sumatriptan in receiver fluid; format: physicochemical; conditions: receiver fluid (10% ethanol in PBS), aqueous with cosolvent or surfactant or cyclodextrin; 10% ethanol in PBS (receiver fluid); read-out: maximum solubility

Peak area (stability in receiver fluid) ([1]; 1 μg/ml, 4° C.): 9366
Peak area (stability in receiver fluid) ([1]; 1 μg/ml, 25° C.): 9415
Peak area (stability in receiver fluid) ([1]; 1 μg/ml, 37° C.): 7094
Peak area (stability in receiver fluid) ([1]; 1 μg/ml, −20° C.): 9514
Peak area (stability in receiver fluid) ([1]; 50 μg/ml, 4° C.): 469462
Peak area (stability in receiver fluid) ([1]; 50 μg/ml, 25° C.): 470115
Peak area (stability in receiver fluid) ([1]; 50 μg/ml, 37° C.): 473418
Peak area (stability in receiver fluid) ([1]; 50 μg/ml, −20° C.): 467385
% recovered compared to what was applied ([2]; Donor): 1.49%
Sumatriptan recovered ([2]; Donor): 95.9 µg
% recovered compared to what was applied ([2]; Mucosa): 8.10%
Sumatriptan recovered ([2]; Mucosa): 522 µg
% recovered compared to what was applied ([2]; Plunger): 5.37%
Sumatriptan recovered ([2]; Plunger): 346 µg
% recovered compared to what was applied ([2]; Receptor): 0.28%
Sumatriptan recovered ([2]; Receptor): 18.2 µg
% recovered compared to what was applied ([2]; Surface): 49.33%
Sumatriptan recovered ([2]; Surface): 3180 µg
% recovered compared to what was applied ([2]; Total amount in receiver fluid): 29.86%
Sumatriptan recovered ([2]; Total amount in receiver fluid, approximately 5 mg applied): 1920 µg
recovery ([2]; pig, 5 mg, mass balance, based on weight of formulation applied, read-out: total amount recovered compared to the theoretical recovery, Mean): 94.4%
solubility [3]: 1930 µg/mL (≈ 6.54 mM)
SMILES: CNS(=O)(=O)Cc1ccc2[nH]cc(CCN(C)C)c2c1 [sumatriptan]
